Measured values reported in US7601494B2, “Method of screening candidate compounds for susceptibility to biliary excretion” (The University of North Carolina at Chapel Hill, priority 1999, dated 2009).

How the values were obtained:
Mrp3 [1] = test: Immunoblot analysis of Mrp3 expression in siRNA-treated SCRH; type: cell-based, rat; settings: vs siFL-transfected and non-transfected cells
Protocol: (§1) HepG2 cells were maintained in Dulbecco's modified Eagle's medium/F-12 plus 10% FBS. Rat hepatocytes were isolated from male Wistar rats (220-300g) by in situ collagenase perfusion (Annaert et al., Drug Metab Dispos 29:1277-1283, 2001). Cells were seeded at a density of 1.5×10^6 cells per well onto polystyrene 6-well plates pre-coated with rat tail type I collagen; a top layer of gelled collagen was overlaid 24 hr after plating. Rat hepatocyte cultures were maintained in Dulbecco's modified Eagle's medium supplemented with 0.1 μM dexamethasone and 0.1% ITS culture supplement (6.25 mg/mL insulin, 6.25 mg/mL transferrin, 6.25 μg/mL selenous acid, 5.35 mg/mL linoleic acid, and […]). Medium was changed every 24 hr.
(§2) HepG2 cells were seeded at a density of 2×10^5 cells per well onto 12-well plates 24 hr before transfection. A mixture of 100 ng firefly luciferase expression plasmid (PGL3-FL) and 100 ng Renilla luciferase expression plasmid (PRL-TK) and various amounts of firefly luciferase siRNA were used per well. Transfections of SCRH were performed at 20 hr after plating, unless specifically indicated. siRNA (2 μg unless specified) was used per well in 6-well plates. siRNA and DNA were formulated for transfection using […]™ transfection reaction kit (QIAGEN Inc. Valencia, Calif. USA). Briefly, siRNA was condensed in Enhancer EC at a ratio of 1:2 (μg of total RNA and/or DNA : μl of Enhancer), and formulated with TransMessenger at a ratio of 1:4 (μg of RNA and /or DNA: μl of TransMessenger) and then incubated with cells. For transfections of HepG2 cells, medium was changed after an overnight incubation with siRNA. For transfections of SCRH, cells were incubated with siRNA for 4 hr and then were overlaid with collagen. siRNA delivery into hepatocytes was more efficient before overlay of the top collagen layer. The effect of transfection was examined 48 hr later.
(§3) Cells were harvested 48 hr post transfection and lysed in 1% SDS, 1 mM EDTA plus COMPLETE™ protease inhibitor cocktail (Roche Diagnostics, Mannheim, Germany). The protein concentration of the clear cell lysate was determined with the BCA Protein Assay Reagent Kit (Pierce Biotech, Inc. Rockford, Ill.). […] of total protein per lane was resolved by electrophoresis on NuPAGE 4-12% Bis-Tris Gel (Invitrogen Life Technology, Carlsbad, Calif. USA) and were transferred onto polyvinylidone difluoride membranes. The following antibodies were used to probe the membranes: anti-Mrp2 (M2111-6, Alexis Biochemicals, San Diego, Calif. USA); anti-Mrp3 (kind gift from Dr. Yuichi Sugiyama); anti-Radixin (Chemicon International, Inc. Temecula, Calif. USA), anti-β-actin (MAB1501, Chemicon).

SCRH = test: Lactate dehydrogenase activity assay of culture medium of SCRH; type: cell-based, rat; settings: after three days in culture, mean±SEM
Protocol: Prior to the functional studies, cell culture medium was assayed for lactate dehydrogenase activity, an intracellular enzyme whose leakage into extracellular medium is inversely related to cell viability. Lactate dehydrogenase activity was assayed with kit 500-C (Sigma Diagnostics, St. Louis, Mo. USA) utilizing lactate dehydrogenase-catalyzed reduction of pyruvate to lactate, subsequent conjugation of remaining pyruvate with 2,4-dinitrophenylhydrazine, and spectrophotometric detection (λ=500 nm) of the pyruvate-2,4-dinitrophenylhydrazone conjugate at alkaline pH (Cabaud and Wroblewski, Am. J. Clin. Pathol. 30:234-236,1958).

Mrp3 [2] = target: T1, Mrp3 (Rattus norvegicus, UniProt O88563); test: Assessment of Mrp3 function with CDF disposition in siMrp3-treated SCRH (30 min washout); type: cell-based
T1 construct: endogenous in cells; host or cells: sandwich-cultured primary hepatocytes of male Wistar rats
Protocol: Cells were rinsed twice with Hanks' balanced salt solution (HBSS, 2 mL, 37° C.) and incubated (10 min, 1.5 mL, 37° C.) with 2 μM CDF diacetate (Molecular Probes, Eugene, Oreg. USA), and were then rinsed twice with cold HBSS (2 mL, 4° C.). Cell images were taken with a Axiovert 100TV inverted microscope. Accumulation of CDF in cells+bile canaliculi and cells only was assessed in SCRH pre-incubated (10 min, 2 mL, 37° C.) with standard HBSS and Ca^2+-free HBSS, respectively (Liu et al., J. Pharmacol. Exp. Ther. 289:1592-1599, 1999). SCRH were subsequently incubated with CDF diacetate (10 min, 2 mL, 37° C.). In siMrp2-treated SCRH, cells were then rinsed four times with cold HBSS (2 mL, 4° C.) and lysed (1 mL, 0.5% TritonX-100 in phosphate-buffered saline). In siMrp3-treated SCRH, following incubation with CDF diacetate, cells were rinsed four times with warm HBSS (2 mL, 37° C.) and were incubated with HBSS (30 min, HBSS changed every 10 min, 2 mL, 37° C.) to allow time for intracellular CDF to undergo appreciable basolateral excretion prior to rinsing the SCRH four times with cold HBSS and lysing the cells (as above). CDF fluorescence in lysate was quantified with fluorescence spectrophotometry (λex=485 nm, λem=[…]); protein concentration was determined with the BCA method kit (as above).

Mrp2 = test: Immunoblot analysis of Mrp2 expression in siRNA-treated SCRH; type: cell-based, rat; settings: vs siFL-transfected and non-transfected cells
Protocol: as §1, §2, §3

T1 sequence (O88563 whole entry): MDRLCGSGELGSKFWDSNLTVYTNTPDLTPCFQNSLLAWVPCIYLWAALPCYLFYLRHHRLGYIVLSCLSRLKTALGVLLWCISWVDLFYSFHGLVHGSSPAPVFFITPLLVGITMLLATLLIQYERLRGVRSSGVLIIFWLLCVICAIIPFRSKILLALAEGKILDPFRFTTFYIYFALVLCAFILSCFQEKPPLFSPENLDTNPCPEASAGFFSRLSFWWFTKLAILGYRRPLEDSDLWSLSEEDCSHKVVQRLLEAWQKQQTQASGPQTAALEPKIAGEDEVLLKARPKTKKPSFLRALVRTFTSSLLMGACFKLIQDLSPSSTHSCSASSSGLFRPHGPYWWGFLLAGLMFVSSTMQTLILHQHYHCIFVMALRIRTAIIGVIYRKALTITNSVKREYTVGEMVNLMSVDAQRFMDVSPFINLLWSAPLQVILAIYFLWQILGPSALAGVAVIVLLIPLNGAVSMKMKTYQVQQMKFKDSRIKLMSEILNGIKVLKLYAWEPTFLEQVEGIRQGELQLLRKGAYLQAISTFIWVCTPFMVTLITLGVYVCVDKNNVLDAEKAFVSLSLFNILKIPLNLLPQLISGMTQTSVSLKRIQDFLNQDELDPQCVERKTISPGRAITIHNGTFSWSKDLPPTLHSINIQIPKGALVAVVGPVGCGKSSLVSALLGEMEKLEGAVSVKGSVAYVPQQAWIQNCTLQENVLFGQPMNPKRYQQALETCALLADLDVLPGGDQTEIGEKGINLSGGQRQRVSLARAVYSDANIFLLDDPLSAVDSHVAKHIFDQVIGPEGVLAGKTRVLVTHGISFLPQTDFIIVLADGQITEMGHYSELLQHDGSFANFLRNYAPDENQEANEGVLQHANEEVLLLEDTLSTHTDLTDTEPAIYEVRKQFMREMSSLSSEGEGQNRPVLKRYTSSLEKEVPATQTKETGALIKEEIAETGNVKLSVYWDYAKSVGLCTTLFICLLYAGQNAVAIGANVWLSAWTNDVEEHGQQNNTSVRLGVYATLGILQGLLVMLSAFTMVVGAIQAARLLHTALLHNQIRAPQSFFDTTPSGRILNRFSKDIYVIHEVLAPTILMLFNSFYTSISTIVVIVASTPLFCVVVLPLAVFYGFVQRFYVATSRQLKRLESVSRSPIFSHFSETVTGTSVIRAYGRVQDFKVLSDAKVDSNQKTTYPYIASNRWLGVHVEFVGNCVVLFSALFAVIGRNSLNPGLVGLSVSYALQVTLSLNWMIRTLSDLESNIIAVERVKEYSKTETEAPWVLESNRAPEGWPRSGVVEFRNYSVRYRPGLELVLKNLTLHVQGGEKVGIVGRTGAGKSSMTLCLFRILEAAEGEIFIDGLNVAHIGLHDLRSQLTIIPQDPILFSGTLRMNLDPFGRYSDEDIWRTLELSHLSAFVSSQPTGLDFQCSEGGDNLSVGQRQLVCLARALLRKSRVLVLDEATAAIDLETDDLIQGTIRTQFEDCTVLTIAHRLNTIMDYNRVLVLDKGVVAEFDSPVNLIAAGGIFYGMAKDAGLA

siMrp3: siRNA targeting rat Mrp3, GGUCCAAGGACCUGCCUCCCA (SEQ ID NO: 6), nucleotides 1950-1970 of Mrp3 cDNA (listed as RNA, chemistry not given here)
Mrp3 protein expression (in words) (Mrp3 [1]): a decrease in Mrp3 protein expression
lactate dehydrogenase activity (SCRH): 87±3 % non-transfected control SCRH
increase of biliary excretion index of CDF (Mrp3 [2]; transfected SCRH, after 30 min washout, vs control): ~60%
biliary excretion index of CDF (Mrp3 [2]; transfected SCRH, after 30 min washout, control 36.2%): 57.5%
CDF accumulation in cells only (Mrp3 [2]; transfected SCRH, after 30 min washout, non-transfected control 15.6±4.0): 13.7±2.2 pmol/mg protein/10 min
CDF accumulation in cells+bile canaliculi (Mrp3 [2]; transfected SCRH, after 30 min washout, non-transfected control 24.4±4.3): 32.3±2.5 pmol/mg protein/10 min
CDF fluorescence in canalicular networks (in words) (Mrp3 [2]; vs siFL-transfected or non-transfected cells): more intense
expression of Mrp2 (in words) (Mrp2): no change in expression of Mrp2
